From the supplement of paper PMC10307832

Legend:
Assay in all cases: relative viability (nuclei count vs DMSO), 5 days (fraction); higher = more cells survive
Bortezomib + Luminespib = compound: CC(C)C[C@H](NC(=O)[C@H](Cc1ccccc1)NC(=O)c1cnccn1)B(O)O [Bortezomib] + CCNC(=O)c1noc(-c2cc(C(C)C)c(O)cc2O)c1-c1ccc(CN2CCOCC2)cc1 [Luminespib] (partner 0.01 µM)
Summary of the method: (§1)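 Values are medians from duplicate plates. Each reflects relative viability, defined as the nuclei count of treated wells over that of vehicle wells. Lung cancer cell lines in 1536-well plates were pin-tool dosed one day after seeding with one drug alone or with a fixed anchor-drug dose plus five library-drug doses (not always all listed) in √10 steps, then fixed, stained and imaged at 4× after 5 days.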

Bortezomib + Alpelisib = compound: CC(C)C[C@H](NC(=O)[C@H](Cc1ccccc1)NC(=O)c1cnccn1)B(O)O [Bortezomib] + Cc1nc(NC(=O)N2CCC[C@H]2C(N)=O)sc1-c1ccnc(C(C)(C)C(F)(F)F)c1 [Alpelisib] (partner 2 µM)
Summary of the method: as §1

[1] = compound: CC1=CC(=NN1)NC2=CC(=NC(=N2)/C=C/C3=CC=CC=C3)N4CCN(CC4)C + O=C(CCCCCCC(=O)Nc1ccccc1)NO [Vorinostat] (partner 1 µM)
Summary of the method: as §1

Obatoclax + Pictilisib = compound: COC1=CC(c2cc3ccccc3[nH]2)=N/C1=C\c1[nH]c(C)cc1C [Obatoclax] + CS(=O)(=O)N1CCN(Cc2cc3nc(-c4cccc5[nH]ncc45)nc(N4CCOCC4)c3s2)CC1 [Pictilisib] (partner 1 µM)
Summary of the method: as §1

Cell Line	relative viability (Bortezomib + Luminespib; first compound 0.0002 µM)	relative viability (Bortezomib + Luminespib; first compound 0.000632 µM)	relative viability (Bortezomib + Luminespib; first compound 0.002 µM)	relative viability (Bortezomib + Luminespib; first compound 0.006325 µM)	relative viability (Bortezomib + Luminespib; first compound 0.02 µM)	relative viability (Bortezomib + Alpelisib; first compound 0.0002 µM)	relative viability (Bortezomib + Alpelisib; first compound 0.000632 µM)	relative viability (Bortezomib + Alpelisib; first compound 0.002 µM)	relative viability (Bortezomib + Alpelisib; first compound 0.006325 µM)	relative viability (Bortezomib + Alpelisib; first compound 0.02 µM)	relative viability ([1]; first compound 0.08 µM)	relative viability ([1]; first compound 0.253 µM)	relative viability ([1]; first compound 0.8 µM)	relative viability ([1]; first compound 2.53 µM)	relative viability ([1]; first compound 8 µM)	relative viability (Obatoclax + Pictilisib; first compound 0.01 µM)	relative viability (Obatoclax + Pictilisib; first compound 0.03162 µM)	relative viability (Obatoclax + Pictilisib; first compound 0.1 µM)	relative viability (Obatoclax + Pictilisib; first compound 0.3162 µM)	relative viability (Obatoclax + Pictilisib; first compound 1 µM)
LXF-289	0.68	0.598	0.639	0.138	0.074	1.03	1.01	0.946	0.0804	0.0589	0.742	0.759	0.603	0.252	0.113	0.778	0.773	0.751	0.72	0.694
NCI-H23	0.224	0.208	0.208	0.18	0.169		0.72	0.829	0.116	0.109	0.485	0.756	0.457	0.141	0.0948	0.43	0.442	0.57	0.4	0.197
NCI-H322M	0.736		0.729	0.386	0.322	0.771		0.713	0.731	1.38	0.881	0.948	0.891	0.31	0.303	0.545	0.484	0.665	0.467	0.5
NCI-H358	0.285		0.349	0.307	0.0995	0.782	0.873	0.613	0.161	0.162	0.587	0.756	0.178	0.116	0.0712	0.322	0.297	0.261	0.288	0.23
NCI-H441	0.331	0.341	0.236	0.159	0.168	0.613	0.58	0.19	0.132	0.111	0.569	0.768	0.58	0.498	0.138	0.442	0.451	0.412	0.338	0.348
NCI-H460	0.0335	0.0348	0.033	0.0295	0.0196	0.419	0.455	0.515	0.125	0.0093	0.673	0.755	0.382	0.0404	0.0188	0.401	0.294	0.136	0.344	0.329
NCI-H520	0.223	0.234	0.237	0.211	0.217	0.981	0.935	0.91	0.155	0.135	0.7	0.678	0.415	0.184	0.14	0.3	0.336	0.318	0.268	0.245
NCI-H596	0.942	0.73	0.609	0.244	0.2	0.541	0.431	0.42	0.174	0.128	0.557	0.633	0.577	0.42	0.139	0.416	0.357	0.365	0.359	0.296
NCI-H647	0.198	0.294	0.136	0.0557	0.0467	1.07	1.24	0.881	0.0394	0.0242	0.58	0.626	0.391	0.128	0.0534	0.469	0.393	0.118	0.33	0.153
NCI-H661	0.928	0.858	0.921	0.4	0.151	0.582	0.501	0.625	0.602	0.216	0.784	0.854	0.562	0.348	0.311	0.392	0.363	0.33		0.451
NCI-H727	0.374	0.321	0.358	0.382	0.279	0.5	0.514	0.494	0.14	0.106	0.86	0.882	1.32	1.02	0.523	0.33	0.456	0.701	0.339	0.253
NCI-H838	0.428	0.302	0.264	0.124	0.103	0.977	0.983	1.13	0.475	0.134	0.726	0.729	0.394	0.146	0.117	0.52	0.508	0.421	0.35	0.247
NCI-H1355	0.668	0.657	0.645	0.233	0.167	0.826	0.783	0.685	0.137	0.126	0.639	0.599	0.622	0.273	0.104	0.405	0.412	0.406	0.384	0.327
NCI-H1395	0.864	0.761	0.445	0.334	0.263	1.15	1.06	0.387	0.411	0.393	0.702	0.669	0.675	0.375	0.236	0.815	0.488	0.485	0.811	0.519
NCI-H1437	1.11	1.07	1.14	0.165	0.155	0.951	0.975	1.05	0.0854	0.0875	0.631	0.904	0.819	0.394	0.201	0.374	0.436	0.495	0.452	0.378
NCI-H1651	0.868	0.906	1.07	0.154	0.114	1	0.87	0.748	0.114	0.0938	0.349	0.529	0.464	0.497	0.145	0.58	0.567	0.634	0.256	0.188

Cell Line	relative viability (Bortezomib + Luminespib; first compound 0.0002 µM)	relative viability (Bortezomib + Luminespib; first compound 0.000632 µM)	relative viability (Bortezomib + Luminespib; first compound 0.002 µM)	relative viability (Bortezomib + Luminespib; first compound 0.006325 µM)	relative viability (Bortezomib + Luminespib; first compound 0.02 µM)	relative viability (Bortezomib + Alpelisib; first compound 0.0002 µM)	relative viability (Bortezomib + Alpelisib; first compound 0.000632 µM)	relative viability (Bortezomib + Alpelisib; first compound 0.002 µM)	relative viability (Bortezomib + Alpelisib; first compound 0.006325 µM)	relative viability (Bortezomib + Alpelisib; first compound 0.02 µM)	relative viability ([1]; first compound 0.08 µM)	relative viability ([1]; first compound 0.253 µM)	relative viability ([1]; first compound 0.8 µM)	relative viability ([1]; first compound 2.53 µM)	relative viability ([1]; first compound 8 µM)	relative viability (Obatoclax + Pictilisib; first compound 0.01 µM)	relative viability (Obatoclax + Pictilisib; first compound 0.03162 µM)	relative viability (Obatoclax + Pictilisib; first compound 0.1 µM)	relative viability (Obatoclax + Pictilisib; first compound 0.3162 µM)	relative viability (Obatoclax + Pictilisib; first compound 1 µM)
NCI-H1666	0.951	1.02	0.98	0.319	0.322	1.04	0.98	1.04	0.232	0.217	1.05	0.992	0.926	1.12	0.802	0.398	0.531	0.479	0.188	0.196
NCI-H1734	0.181	0.186	0.178	0.129	0.101	0.706	0.732	0.612	0.154	0.113	0.745	0.757	0.694	0.22	0.187	0.466	0.457		0.361	0.229
NCI-H1755	0.494	0.418	0.417	0.21	0.181	0.944	0.926	0.951	0.178	0.139	0.682	0.773	0.651	0.359	0.209	0.475	0.383	0.386	0.357	0.269
NCI-H1793	0.184	0.151	0.171	0.204	0.127	0.668	0.589	0.776	0.475	0.127	0.544	0.77	0.78	0.124	0.0909	0.288	0.306	0.388	0.297	0.296
NCI-H1915	0.724	0.732	0.721	0.0571	0.0533	1.05	1.03	0.892	0.81	0.0434	0.493	0.584	0.467	0.376	0.116	0.967	0.823	0.968	0.989	0.933
NCI-H1944	0.715	0.697	0.763	0.548	0.167	0.807	0.79	0.764	0.84	0.154	0.581	0.565	0.394	0.286	0.16	0.34	0.332	0.337	0.295	0.336
NCI-H1975	0.192	0.122	0.158	0.138	0.177	0.696	0.615	0.163	0.127	0.108	0.663	0.733	0.536	0.187	0.128	0.299	0.313	0.258	0.292	0.199
NCI-H1993	0.799	0.807	0.991	0.428	0.4	0.697	0.617	0.708	0.462	0.484	0.737	0.734	1.03	0.238	0.275	0.804	0.833	0.842	1.02	0.733
NCI-H2009	0.954	0.988	1.06	0.803	0.0826	1.13	1.19	1.14	0.543	0.0447	0.751	0.699	0.712	0.218	0.121	0.927	0.936	0.706	0.281	0.228
NCI-H2023	0.638	0.694	0.789	0.118	0.0549	0.525	0.612	0.74	0.383	0.0813	0.586	0.781	0.319	0.0637	0.0403	0.29	0.22	0.265	0.151	0.0879
NCI-H2085	0.482	0.36	0.4	0.178	0.235	0.898	1.09		0.279	0.233	0.826	0.95	0.822	0.322	0.366	0.446	0.433	0.483	0.338	0.242
NCI-H2087	0.163	0.145	0.164	0.0644	0.0565	0.953	1.05	0.635	0.0664	0.0561	0.697	0.954	0.72	0.324	0.141	0.908	0.925	0.825	0.334	0.206
NCI-H2126	0.864	0.904	0.821	0.543	0.213	0.765	0.758	0.741	0.737	0.206	0.816	0.82	0.834	0.674	0.202	0.524	0.464	0.554	0.481	0.482
NCI-H2170	0.46	0.534	0.744	0.516	0.202	0.637	0.687	0.904	0.232	0.14	0.867	0.921	0.65	0.211	0.153	0.369	0.278	0.316	0.334	0.295
NCI-H2228	0.129	0.117	0.137	0.0914	0.093	0.796	0.748	0.411	0.111	0.102	0.778	0.647	0.328	0.0662	0.0606	0.278	0.419	0.384	0.294	0.174
NCI-H2347	0.558	0.607	0.411	0.25	0.208	0.924	0.968	0.706	0.248	0.278	0.593	0.686	0.583	0.44	0.262	0.904	0.648	0.695	0.489	0.831
